In US5487990A (The General Hospital Corporation, priority 1992, dated 1996):

Legend:
[1] = target: T1, Acetyl-CoA Hydrolase from S. cerevisiae (Saccharomyces cerevisiae, UniProt P32316); assay: Substrate specificity, colorimetric assay (DNTB, A412); format: biochemical; conditions: read-out: Relative Activity (%)
T1 sequence (P32316 1-526): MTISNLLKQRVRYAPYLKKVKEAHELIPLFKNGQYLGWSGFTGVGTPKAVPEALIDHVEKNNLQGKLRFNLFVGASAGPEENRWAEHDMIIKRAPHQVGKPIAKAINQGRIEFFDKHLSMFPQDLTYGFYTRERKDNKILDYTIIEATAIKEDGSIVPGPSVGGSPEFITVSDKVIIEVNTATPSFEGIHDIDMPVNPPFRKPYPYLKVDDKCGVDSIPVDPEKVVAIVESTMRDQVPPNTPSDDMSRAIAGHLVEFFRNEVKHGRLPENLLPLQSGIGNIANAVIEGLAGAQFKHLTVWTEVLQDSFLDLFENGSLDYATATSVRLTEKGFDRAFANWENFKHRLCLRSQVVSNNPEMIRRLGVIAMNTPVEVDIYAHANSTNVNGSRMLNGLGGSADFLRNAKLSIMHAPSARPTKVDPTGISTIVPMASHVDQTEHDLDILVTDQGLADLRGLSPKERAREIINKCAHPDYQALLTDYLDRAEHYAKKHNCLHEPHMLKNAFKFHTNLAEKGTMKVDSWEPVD

[2] = test system: mitochondrial enzyme from hamster brown fat; conditions: cited from earlier work
[3] = target: T1, Acetyl-CoA Hydrolase from S. cerevisiae; assay: biochemical
Procedure: The assay mixture was incubated at 30° C. for 0.30 s, 1 min, 2 min, 3 min, 4 min, and 5 min. The reaction was stopped by adding 20 μl of 10 M acetic acid. The sample was evaporated by N2 stream at 30° C. to dryness in a fume hood, dissolved in 100 μl H2 O, and transferred to a scintillation vial containing 10 ml Ready-Solv EP scintillation cocktail. The sample tube was washed twice with 100 μl H2 O, each wash was transferred to the scintillation vial, and the radioactivity was determined by scintillation counting for 1 min.
nucleotides and divalent cations in 100 mM potassium phosphate, pH 7.4.
The enzyme activity was determined under standard radioactive assay
conditions using ACTH (1-24) (N = 3), as described in the Examples.
acylCoA in 100 mM phosphate buffer, pH 7.4.

[4] = substrate: CC(=O)SCCNC(=O)CCNC(=O)[C@H](O)C(C)(C)COP(=O)(O)OP(=O)(O)OC[C@H]1O[C@@H](n2cnc3c(N)ncnc32)[C@H](O)[C@@H]1OP(=O)(O)O; assay: purified protein, by the assay type; conditions: other: substrate acetyl-CoA; Lineweaver-Burk plot; pH 7.4; 30.0 °C
[5] = pH 7.4, read-out: Enzyme Activity (%)

Molecule | activity at 250 µM [1] [%] | Km [2] [µM] | effect on yeast enzyme activity (in words) [3] | remaining activity at 100 µM [3, 5] [%] | remaining activity at 1000 µM [3, 5] [%] | remaining activity at 5000 µM [3, 5] [%] | Km ([3]; substrate acetyl-CoA, Lineweaver-Burk plot, read-out: apparent Km) [µM] | Km [4] [µM]
CC(=O)SCCNC(=O)CCNC(=O)[C@H](O)C(C)(C)COP(=O)(O)OP(=O)(O)OC[C@H]1O[C@@H](n2cnc3c(N)ncnc32)[C@H](O)[C@@H]1OP(=O)(O)O [Acetyl-CoA, acetyl coenzyme A] | 100 | 51 | inhibited most effectively | 66 | 28 | 5 | 62 | –
Acetyl-CoA Hydrolase from S. cerevisiae (Saccharomyces cerevisiae S288C) (protein) MTISNLLKQRVRYAPYLKKVKEAHELIPLFKNGQYLGWSGFTGVGTPKAVPEALIDHVEKNNLQGKLRFNLFVGASAGPEENRWAEHDMIIKRAPHQVGKPIAKAINQGRIEFFDKHLSMFPQDLTYGFYTRERKDNKILDYTIIEATAIKEDGSIVPGPSVGGSPEFITVSDKVIIEVNTATPSFEGIHDIDMPVNPPFRKPYPYLKVDDKCGVDSIPVDPEKVVAIVESTMRDQVPPNTPSDDMSRAIAGHLVEFFRNEVKHGRLPENLLPLQSGIGNIANAVIEGLAGAQFKHLTVWTEVLQDSFLDLFENGSLDYATATSVRLTEKGFDRAFANWENFKHRLCLRSQVVSNNPEMIRRLGVIAMNTPVEVDIYAHANSTNVNGSRMLNGLGGSADFLRNAKLSIMHAPSARPTKVDPTGISTIVPMASHVDQTEHDLDILVTDQGLADLRGLSPKERAREIINKCAHPDYQALLTDYLDRAEHYAKKHNCLHEPHMLKNAFKFHTNLAEKGTMKVDSWEPVD | – | – | – | – | – | – | – | 62
